We go through one compound from US6835752B2, “Carboxylic acid derivatives, processes for the preparation thereof and pharmaceutical agents comprising the same as active ingredient” (Ono Pharmaceutical Co., Ltd., priority 2000, dated 2004).

Some results are limits rather than exact numbers.

Details in all cases: CHO cell membrane fraction, competition with [3H]-PGE2 2.5 nM
In one assay the target is T1, mouse EP2 receptor (Mus musculus, UniProt Q62053).
T1 construct: expressed in transfected cells; host or cells: CHO cells
Briefly: Binding assay using cell expressing the prostanoid receptor subtypes (EP2). The procedure:
(§1) (i) Binding Assay Using Cell Expressing the Prostanoid Receptor Subtypes
(§2) The preparation of membrane fraction was carried out according to the method of Sugimoto et al [J. Biol. Chemical, 267, 6463-6466 (1992)], using CHO cell expressing prostanoid receptor subtypes (mouse EP1, EP2, EP3α, and EP4).
(§3) The standard assay mixture containing membrane fraction (50 μL), [^3H]—PGE2 in a final volume of 150 μL was incubated for 1 hour at room temperature. The reaction was terminated by addition of 3 mL of ice-cold buffer. The mixture was rapidly filtered through a glass filter (GF/B) under reduced pressure. The radioactivities associated with the filters were measured by liquid scintillation counter.
(§4) Kd and Bmax values were determined from Scatchard plots [Ann. N. Y. Acad. Sci. 51, 660(1949)]. Non-specific binding was determined as the amount bound in the presence of an excess (2.5 μM of unlabeled PGE2. In the experiment for competition of specific [^3H]—PGE2 binding assay, [^3H]—PGE2, was added at a concentration of 2.5 nM and a test compound of the present invention was added at various concentrations. The following buffer was used in all reactions.
(§5) Buffer: 10 mM potassium phosphate (pH 6.0), 1 mM EDTA, 10 mM MgCl2, 0.1 M NaCl.
(§6) The inhibition constant (Ki) (μM) of each compound was calculated by the following equation.

A further assay addresses T2, mouse EP1 receptor (Mus musculus, UniProt P35375).
T2 construct: expressed in transfected cells; host or cells: CHO cells
T2 sequence (P35375 1-405): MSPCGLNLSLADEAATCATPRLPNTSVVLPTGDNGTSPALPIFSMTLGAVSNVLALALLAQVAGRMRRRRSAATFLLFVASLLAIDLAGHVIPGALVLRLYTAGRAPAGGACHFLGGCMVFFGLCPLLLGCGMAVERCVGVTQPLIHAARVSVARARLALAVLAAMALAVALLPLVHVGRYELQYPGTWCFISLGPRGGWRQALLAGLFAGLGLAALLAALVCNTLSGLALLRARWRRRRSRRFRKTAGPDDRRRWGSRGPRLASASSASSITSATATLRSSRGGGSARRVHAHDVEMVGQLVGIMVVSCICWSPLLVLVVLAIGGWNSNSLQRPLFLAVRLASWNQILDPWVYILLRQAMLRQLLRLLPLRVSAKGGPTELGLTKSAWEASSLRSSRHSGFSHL
Briefly: Binding assay using cell expressing the prostanoid receptor subtypes (EP1). The method, then:
as §1, §2, §3, §4, §5, §6

A further assay concerns the target T3, mouse EP3α receptor (Mus musculus, UniProt P30557).
T3 construct: expressed in transfected cells; host or cells: CHO cells
T3 sequence (P30557 1-365): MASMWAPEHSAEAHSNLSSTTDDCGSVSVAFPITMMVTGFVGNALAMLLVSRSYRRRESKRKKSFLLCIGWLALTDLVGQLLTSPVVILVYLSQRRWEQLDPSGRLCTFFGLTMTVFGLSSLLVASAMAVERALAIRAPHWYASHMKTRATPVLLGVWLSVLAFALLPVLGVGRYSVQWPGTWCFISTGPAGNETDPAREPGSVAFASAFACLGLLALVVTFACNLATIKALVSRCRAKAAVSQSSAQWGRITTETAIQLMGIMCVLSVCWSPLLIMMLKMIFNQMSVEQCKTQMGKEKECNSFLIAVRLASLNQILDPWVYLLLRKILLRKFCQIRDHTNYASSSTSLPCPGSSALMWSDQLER
Briefly: Binding assay using cell expressing the prostanoid receptor subtypes (EP3). The procedure: as §1, §2, §3, §4, §5, §6

For the next assay, the target named is T4, mouse EP4 receptor (Mus musculus, UniProt P32240).
T4 construct: expressed in transfected cells; host or cells: CHO cells
Briefly: Binding assay using cell expressing the prostanoid receptor subtypes (EP4). The method, then: as §1, §2, §3, §4, §5, §6

T1 sequence (Q62053 whole entry): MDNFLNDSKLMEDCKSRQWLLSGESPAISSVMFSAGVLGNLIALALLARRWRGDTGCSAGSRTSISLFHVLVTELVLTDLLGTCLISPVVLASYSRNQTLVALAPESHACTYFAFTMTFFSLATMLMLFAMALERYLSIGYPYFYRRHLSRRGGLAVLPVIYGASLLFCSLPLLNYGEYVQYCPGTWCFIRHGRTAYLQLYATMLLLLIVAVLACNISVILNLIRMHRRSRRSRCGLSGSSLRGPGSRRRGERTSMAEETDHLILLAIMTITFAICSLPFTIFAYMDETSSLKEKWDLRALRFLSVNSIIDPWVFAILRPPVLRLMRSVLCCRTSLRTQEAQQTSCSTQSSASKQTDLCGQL
T4 sequence (P32240 whole entry): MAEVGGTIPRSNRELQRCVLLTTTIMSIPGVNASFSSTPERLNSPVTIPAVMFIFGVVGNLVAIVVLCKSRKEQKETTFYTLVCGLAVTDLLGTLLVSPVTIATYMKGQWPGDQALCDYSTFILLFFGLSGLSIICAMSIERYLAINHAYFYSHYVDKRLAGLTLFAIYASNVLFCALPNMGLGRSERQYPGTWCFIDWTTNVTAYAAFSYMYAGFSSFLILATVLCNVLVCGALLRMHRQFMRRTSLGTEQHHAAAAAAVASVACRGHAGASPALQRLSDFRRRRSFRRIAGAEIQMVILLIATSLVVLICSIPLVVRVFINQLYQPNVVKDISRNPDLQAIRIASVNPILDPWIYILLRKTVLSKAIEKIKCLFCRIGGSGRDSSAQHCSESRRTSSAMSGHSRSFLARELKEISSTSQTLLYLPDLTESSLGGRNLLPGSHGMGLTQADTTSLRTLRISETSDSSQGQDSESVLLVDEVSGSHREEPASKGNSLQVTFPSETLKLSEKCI

In the case of `CC(C(=O)Nc1ccccc1CCCC(=O)O)c1cccc2ccccc12` (stereo not shown) [Example 2, 4-[2-[2-(1-naphthyl)propanoylamino]phenyl]butanoic acid], the Ki (in general, the dissociation constant of the complex between target and ligand, obtained from inhibition or displacement) was > 10 µM at mouse EP2 receptor, > 10 µM on mouse EP1 receptor, 2.4 µM on mouse EP3α receptor and 0.3 µM at mouse EP4 receptor.
